Residue numbers refer to the chain shown, from its start. pKi: −log10 of the molar value.

Drawing on patent publication US6033823A, “Mutated penicillin G acylase genes” (priority 1994, dated 2000), this text covers Ki for one compound.

Format in all cases: biochemical
Holding throughout (conditions): from progress curves of NIPAB deacylation, 25° C., 0.1 M NaH2PO4.H2O buffer pH 7.5, read-out: Ki Phenylacetic acid (inhibition constant, dissociation constant)

Test [1] addresses T1, Alcaligenes faecalis Penicillin G acylase mutant B:L56A (Alcaligenes faecalis, UniProt O34142, L321A).
T1 construct: alpha 202 aa, beta 551 aa; recombinant, E. coli host
T1 sequence (O34142 27-228): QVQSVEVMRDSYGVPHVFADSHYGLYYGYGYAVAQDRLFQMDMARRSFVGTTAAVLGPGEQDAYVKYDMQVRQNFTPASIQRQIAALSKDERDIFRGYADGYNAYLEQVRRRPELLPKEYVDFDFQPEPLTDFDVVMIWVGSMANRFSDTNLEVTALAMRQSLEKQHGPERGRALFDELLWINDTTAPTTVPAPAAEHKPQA
T1 sequence (O34142 266-816 L321A): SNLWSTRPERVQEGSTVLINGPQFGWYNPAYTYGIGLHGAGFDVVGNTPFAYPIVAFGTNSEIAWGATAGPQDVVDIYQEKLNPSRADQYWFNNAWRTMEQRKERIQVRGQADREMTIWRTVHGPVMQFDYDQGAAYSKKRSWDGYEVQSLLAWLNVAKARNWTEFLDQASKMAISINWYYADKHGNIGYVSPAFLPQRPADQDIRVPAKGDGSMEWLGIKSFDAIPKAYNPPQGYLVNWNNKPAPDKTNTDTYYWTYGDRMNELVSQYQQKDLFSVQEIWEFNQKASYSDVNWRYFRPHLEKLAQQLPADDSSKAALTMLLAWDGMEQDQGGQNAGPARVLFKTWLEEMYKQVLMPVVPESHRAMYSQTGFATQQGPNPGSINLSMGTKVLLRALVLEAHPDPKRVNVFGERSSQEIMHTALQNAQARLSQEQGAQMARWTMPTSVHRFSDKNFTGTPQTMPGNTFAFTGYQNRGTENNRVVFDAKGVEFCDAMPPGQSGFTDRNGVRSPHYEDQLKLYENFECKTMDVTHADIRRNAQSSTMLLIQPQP
In words: NIPAB kinetics and phenylacetic acid product inhibition, mutant B:L56A. The procedure: (§1) In a continuous assay Penicillin G acylase was assayed spectro-fotometrically with the chromogenic substrate NIPAB [6-nitro-3-phenylacetamido-benzoic acid]. The liberation of 3-amino-6-nitrobenzoic acid was monitored by measuring the extinction at 405 nm in a Kontron 610 kinetic spectrofotometer. Measuring maximal rate, the assays were performed at 25° C. using 20 mM NaH2 PO4.H2 O at pH 7.5 with 20 mM NIPAB and 100 μl enzym solution (at a proper dilution). Initial rate measurements were performed with varying concentration of NIPAB.
(§2) Initial rate measurements were performed with excess substrate over the enzyme. Catalytic parameters were derived from least-squares fitting of the measured initial rates plotted for various substrate concentrations according to the Michaelis-Menten equation.
(§3) The complete conversion of NIPAB was followed as a funtion of time at 20, 50 and 100 μM NIPAB by following the increase in absorbtion at 405 nm. Products of this conversion are phenylacetic acid and 3-amino-6-nitrobenzoic acid. The conversion was performed at 25° C. in 0.1 M NaH2 PO4.H2 O buffer pH 7.5. The progress curves of the deacylation of NIPAB could be fitted very well when product inhibition by phenylacetic acid was taken into account. […]

Test [2] concerns the target T2, Alcaligenes faecalis Penicillin G acylase mutant B:L56V (Alcaligenes faecalis, UniProt O34142, L321V).
T2 construct: alpha 202 aa, beta 551 aa; recombinant, E. coli host
T2 sequence (O34142 27-228): T1 sequence (O34142 27-228)
T2 sequence (O34142 266-816 L321V): T1 sequence (O34142 266-816 L321A) with A56V
As to the kind of experiment: NIPAB kinetics and phenylacetic acid product inhibition, mutant B:L56V. The procedure: as §1, §2, §3

The target of test [3] is T3, Alcaligenes faecalis Penicillin G acylase mutant B:I177V (Alcaligenes faecalis, UniProt O34142, I442V).
T3 construct: alpha 202 aa, beta 551 aa; recombinant, E. coli host
T3 sequence (O34142 27-228): T1 sequence (O34142 27-228)
T3 sequence (O34142 266-816 I442V): T1 sequence (O34142 266-816 L321A) with A56L, I177V
As to the kind of experiment: NIPAB kinetics and phenylacetic acid product inhibition, mutant B:I177V. Here is the method:
as §1, §2, §3

Broadly, the pKi is the negative decadic logarithm of the Ki, by convention in mol/L. Turning to `O=C(O)Cc1ccccc1` [phenylacetic acid], the pKi in test [1] is 4.23; in test [2] it was 4.51; in test [3], 4.46.
